Patent US9644019B2, “Compounds for treating cardiac damage after ischaemia/reperfusion” (priority 2010, dated 2017)

Legend:
[1] = system: EMMPRIN-induced MMP-9 expression; test: EMMPRIN-induced MMP-9 expression in MAEC cells (anti-MMP-9 immunodetection); type: cell-based, mouse; details: 100 μM DETA-NO, AP-9 peptide 0.08 mg/ml overnight, vs PBS
Description: MAEC cells were incubated with 100 μM of DETA-NO to induce EMMPRIN expression (B, D). MAEC cells without DETA-NO were used as a control (A, C). After 3 hours of treatment with DETA-NO, the MAEC cells were incubated overnight with AP-9 peptide (0.08 mg/ml) (C, D) or with PBS (A, B). The MAEC cells were fixed with 4% PFA, and MMP-9 expression was detected using an anti-MMP-9 antibody (1:1000). […] The cores were stained with DAPI.
Likewise, to ascertain if AP-9 peptide inhibited EMMPRIN-induced MMP-9 expression, MAEC cells were incubated with 100 μM of DETA-NO to induce EMMPRIN expression. After 3 hours of treatment with DETA-NO, the MAEC cells were incubated overnight with AP-9 peptide (0.08 mg/ml) or with PBS as a control without peptide. MAEC cells without DETA-NO were used as a control. Finally, the MAEC cells were fixed with 4% PFA and MMP-9 expression was detected using an anti-MMP-9 antibody (1:1000).

EMMPRIN = target: T1, EMMPRIN (Mus musculus, UniProt P18572); test: AP-9 peptide / EMMPRIN co-localization in MAEC cells; type: binding; details: DETA-NO 100 μM overnight, 0.08 mg/ml AP-9 peptide
T1 construct: Said cells were incubated overnight with the nitric oxide donor (DETA-NO) (100 μM) to induce EMMPRIN expression; endogenous in cells; host or cells: MAEC (mouse aortic endothelial cells), fixed with 4% PFA
T1 sequence (P18572 22-273 isoform P18572-2 limits assumed): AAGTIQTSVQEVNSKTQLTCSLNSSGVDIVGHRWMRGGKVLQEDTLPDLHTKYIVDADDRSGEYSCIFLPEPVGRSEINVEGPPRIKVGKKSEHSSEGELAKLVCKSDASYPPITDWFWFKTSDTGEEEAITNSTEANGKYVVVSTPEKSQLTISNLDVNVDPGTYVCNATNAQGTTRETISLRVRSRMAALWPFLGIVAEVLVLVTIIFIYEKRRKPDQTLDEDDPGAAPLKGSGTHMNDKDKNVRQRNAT
Description: The MAEC cells were incubated overnight with the nitric oxide donor (DETA-NO) (100 μM) to induce EMMPRIN expression (right panel). The MAEC cells without DETA-NO were used as a control (left panel). The MAEC cells were fixed with 4% PFA and incubated with 0.08 mg/ml of AP-9 peptide. EMMPRIN expression was detected using an anti-EMMPRIN antibody (1:1000), observing that both signals co-localize (right panel, top right square). The cores were stained with DAPI.
MAEC cells (mouse aortic endothelial cells) were used for the in vitro assays. Said cells were incubated overnight with the nitric oxide donor (DETA-NO) (100 μM) to induce EMMPRIN expression. The MAEC cells without DETA-NO were used as a control. The MAEC cells were fixed with 4% PFA and incubated with 0.08 mg/ml of AP-9 peptide. EMMPRIN expression was subsequently detected using an anti-EMMPRIN antibody (1:1000).

YKLPGHHHHYRP (SEQ ID NO: 3) [AP-9 peptide, EMMPRIN antagonist peptide described in the literature]
EMMPRIN-induced MMP-9 expression [1]: inhibition
binding to EMMPRIN (co-localization of signals) (EMMPRIN): binds specifically
